Entries after “also recorded” stand apart in the source; their conditions may differ. Where a SMILES comes first, the peptide text is derived from it.
How the values were obtained:
[1] = tested on: C57BL6 mice; assay: Rose Bengal model for arterial thrombosis, time to carotid artery occlusion; assay type: in vivo, mouse; conditions: 0.4 to 1.61 mg/kg IP
Excerpt: C57BL6 mice 6 to 16 weeks of age were anesthetized by intraperitoneal injection with sodium pentobarbital and placed in the supine position on a dissecting microscope (Nikon SMZ-2T, Mager Scientific, Inc., Dexter, Mich.). A midline surgical incision was made to expose the right common carotid artery and a Doppler flow probe (Model 0.5 VB, Transonic Systems, Ithaca, N.Y.) is placed under the vessel. The probe was connected to a flowmeter (Transonic Model T106) and was interpreted with a computerized data acquisition program (Windaq, DATAQ Instruments, Arkron, Ohio). Rose Bengal (4,5,6,7-tetrachloro-3′,6-dihydroxy-2,4,5,7-tetraiodospiro(isobenzofuran-1(3H), 9 [9H] xanthan)-3-1 dipotassium salt) (Fisher Scientific, Fair Lawn, N.J.) at 50 mg/kg in 0.9% saline) was then injected into the tail vein in a 0.12 ml volume (Eitzman et al., Blood 95, 577 (2000)). After injection into the tail vein, a green laser light (Melles Griot, Carlsbad, Calif.) at a wavelength of 540 nm was applied 6 cm from the carotid artery. Flow is monitored continuously from the onset of injury. The time to occlusion was determined only after the vessel remained closed with a cessation of blood flow for 20 min. […] These investigations indicate that these compounds are able to prevent thrombosis in the whole animal in vivo.

[2] = target: human α-thrombin (Homo sapiens, UniProt P00734); assay: inhibition of α-thrombin hydrolysis of chromogenic substrate; assay type: biochemical; conditions: Ki (μM) + SD, αIIa (2 nM), alpha-thrombin 2 nM, Sar-Pro-Arg-paranitroanilide
[3] = target: γ-thrombin; assay: inhibition of γ-thrombin hydrolysis of chromogenic substrate; assay type: biochemical, human; conditions: read-out: Ki (μM) + SD, γIIa (2 nM); gamma-thrombin 2 nM, Sar-Pro-Arg-paranitroanilide
[4] = tested on: normal human lung fibroblasts (NHLF); assay: α-thrombin-induced calcium mobilization in normal human lung fibroblasts; assay type: cell-based; conditions: 2 nM alpha thrombin
Procedure: The second assay developed to assess peptides from the combinatorial libraries uses inhibition of α-thrombin-induced calcium mobilization in fibroblasts. Normal human lung fibroblasts (NHLF) were purchased from Clonetics, San Diego, Calif., an affiliate of Bio-Wittaker, Walkersville, Md. The cytoplasmic free Ca^2+ concentration ([Ca^2+]i) was measured using the fluorescent Ca^2+ indicator fura-2 (Molecular Probes, Inc., Eugene, Oreg.). Suspension of fibroblasts in Hepes-Tyrode's buffer were loaded with fura-2 by incubation at 37° C. with 2 μM fura-2/acetoxymethyl ester for 45 minutes according to the method of Rasmussen et al., J. Biol. Chem. 268, 14322 (1993). The labeled fibroblasts were separated from excess probe by washing by centrifugation at 1000 rpm (180 xg). Aliquots of the labeled fibroblasts were transferred into a quartz cuvette with a magnetic stirrer, which was then placed in a thermostatically controlled chamber at 37° C. in a fluorescence spectrophotometer (Perkin-Elmer LS50B spectrofluorometer, Chicago, Ill.). Reagents, test peptide, and α-thrombin (0.25-2 nM), were sequentially added directly to the cuvette. The excitation wavelengths varied between 340 and 380 nm. Fluorescence was measured by recording emitted light at 510 nm as reported by Fisher et al., Mol Pharm. 35, 195 (1989). The minimum emission was determined on a solubilized fibroblast sample in the presence of 10 mM EDTA; maximum emission was determined on the same sample with 10 mM Ca^2+ added. The intrafibroblast free Ca^2+ concentration was calculated by the method of Grykiewicz et al., J. Biol. Chem. 260, 3440 (1985). The ratio of the fluorescence readings was calculated as R=340/380 nm and processed according to the equation [Ca^2+]i=KD((R−Rmin)/Rmax−R))(Sf2/Sb2) to determine the intrafibroblast free Ca^2+ concentration. The KD for fura-2 was assumed to be 224 nM. Rmax and Rmin are the maximum and minimum fluorescence ratios measured at the end of the experiment, respectively; Sf2 and Sb2 are the fluorescence values at 380 nm in the absence and presence of saturating [Ca^2+], respectively. The reaction was monitored for 3-5 minutes.

[5] = tested on: γ-thrombin-induced platelet aggregation; assay: γ-thrombin-induced platelet aggregation in human platelet-rich plasma; assay type: cell-based
Procedure: Fresh whole blood was collected and mixed with 0.013 M sodium citrate and platelet-rich plasma was prepared according to the method of Meloni et al., J. Biol. Chem. 266, 6786 (1991). Platelet-rich plasma with a normalized platelet count between 2-2.5×10^8 platelets/ml was added to a cuvette of an aggregometer (Chronlog Corp., Havertown, Pa.), standardized using the protocol of Meloni et al., supra. Peptides to be examined were added to the cuvette and the mixture stabilized for a few moments. Once the baseline was stabilized, γ-thrombin (10-70 nM) (Haematologic Technologies, Essex Junction, Vt.) was added to determine the minimal concentration of the agonist necessary to achieve full platelet aggregation. All investigations with peptides were performed using threshold concentrations of γ-thrombin. Aggregation was allowed to proceed for 5 minutes before stopping.
Table III is a tabulation of the library of peptides prepared and their influence on γ-thrombin-induced platelet aggregation in platelet-rich plasma. […] The numbers in the column represent the minimal concentration (mM) of the peptide that blocked 100% γ-thrombin-induced platelet aggregation of platelets in human platelet-rich plasma.
Human platelet samples were stimulated with 40 nM human gamma thrombin in each experiment.

[6] = target: thrombin (Homo sapiens, UniProt P00734); conditions: read-out: Ki, retrobinders to the active site of thrombin; cited from earlier work

Compound	time to occlusion of the mouse right carotid artery [1]	Ki [2] [µM]	Ki [3] [µM]	alpha thrombin-induced calcium mobilization ([4]; 0.00038 mM peptide)	inhibition of thrombin-induced calcium mobilization ([4]; 0.003 mM peptide) [%]	inhibition of thrombin-induced calcium mobilization ([4]; 0.08 mM peptide) [%]	Concentration of Peptide [mM] That Gives 100% Inhibition ([5]; 40 nM human gamma thrombin, human platelet-rich plasma) [mM]	concentration that abolished γ-thrombin-induced platelet aggregation ([5]; 40 nM γ-thrombin) [µM]	Ki [6] [mM]
Cc1ccc(C[C@H](NC(=O)[C@@H](CO)NC(=O)[C@@H]2CCCN2C(=O)[C@@H]2C[C@@H]3CCCC[C@@H]3N2C(=O)[C@H](N)CCCNC(=N)N)C(N)=O)cc1 [rOicPsF(p-Me), D-Arg-Oic-Pro-D-Ser-Phe(p-Me)] (HELM PEPTIDE1{[dR].[O=C([C@@H]1C[C@@H]2CCCC[C@@H]2N1[*:1])[*:2]].P.[dS].[Cc1ccc(C[C@H](N[*:1])C(=O)[*:2])cc1].[am]}$$$$V2.0)	significant prolongation; also recorded: prolonged	6.4 to 10.6	42.2 ± 6	full recovery	59	97	0.016	16	
β-Ala-Lys-2Lys-4(Arg-Pro-Pro-Gly-Phe) [MAP4-RPPGF]									1.75

From US7879792B2, “Synthetic peptide inhibitors of thrombin and thrombin activation of protease activated receptors 1 and 4” (The Regents of the University of Michigan, priority 2005, dated 2011)
